Literature values in patent publication US12296127B2, “Intravesical drug delivery devices” (Massachusetts Institute of Technology, priority 2007, dated 2025).

Tests used:
[1] = delivered orally or transdermally
[2] = oral delivery (ELMIRON); high first pass effect

CCN(CC)CC#CCOC(=O)C(O)(c1ccccc1)C1CCCCC1 (stereo not drawn) [oxybutynin]
patients taking the drug who experience side effects [1]: approximately 61% | patients who stop treatment due to the severity of the side effects [1]: 7 to 11%

Pentosan polysulfate sodium [PPS]
bioavailability [2]: 3%
